Results taken from patent US12441768B2, “Compositions and methods for treating endometriosis” (EndoMet Biosciences, Inc., priority 2018, dated 2025).
Where a SMILES comes first, the peptide text is derived from it. The star is where a group is joined. Bn = c1ccc(C*)cc1

Legend:
[1] = % Viability non-Wnt responsive cells
[2] = target: Wnt-responsive promoter (TCF/LEF); assay: Wnt-dependent luciferase reporter assay; type: cell-based, murine
In short: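 Murine 3T3 fibroblasts carrying a TCF/LEF-driven luciferase reporter, stimulated with Wnt3a in the presence of increasing peptide concentrations or vehicle. Luminescence inhibition gave EC50 values in uM.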

[3] = target: T1, β-catenin (Homo sapiens, UniProt P35222); assay: KD50 measurement using competitive fluorescence polarization (FP) with labelled TCF4; type: binding; conditions: fluorescence polarization, β-catenin; for Kd: read-out: β-Cat FP KD
T1 sequence (P35222 1-781): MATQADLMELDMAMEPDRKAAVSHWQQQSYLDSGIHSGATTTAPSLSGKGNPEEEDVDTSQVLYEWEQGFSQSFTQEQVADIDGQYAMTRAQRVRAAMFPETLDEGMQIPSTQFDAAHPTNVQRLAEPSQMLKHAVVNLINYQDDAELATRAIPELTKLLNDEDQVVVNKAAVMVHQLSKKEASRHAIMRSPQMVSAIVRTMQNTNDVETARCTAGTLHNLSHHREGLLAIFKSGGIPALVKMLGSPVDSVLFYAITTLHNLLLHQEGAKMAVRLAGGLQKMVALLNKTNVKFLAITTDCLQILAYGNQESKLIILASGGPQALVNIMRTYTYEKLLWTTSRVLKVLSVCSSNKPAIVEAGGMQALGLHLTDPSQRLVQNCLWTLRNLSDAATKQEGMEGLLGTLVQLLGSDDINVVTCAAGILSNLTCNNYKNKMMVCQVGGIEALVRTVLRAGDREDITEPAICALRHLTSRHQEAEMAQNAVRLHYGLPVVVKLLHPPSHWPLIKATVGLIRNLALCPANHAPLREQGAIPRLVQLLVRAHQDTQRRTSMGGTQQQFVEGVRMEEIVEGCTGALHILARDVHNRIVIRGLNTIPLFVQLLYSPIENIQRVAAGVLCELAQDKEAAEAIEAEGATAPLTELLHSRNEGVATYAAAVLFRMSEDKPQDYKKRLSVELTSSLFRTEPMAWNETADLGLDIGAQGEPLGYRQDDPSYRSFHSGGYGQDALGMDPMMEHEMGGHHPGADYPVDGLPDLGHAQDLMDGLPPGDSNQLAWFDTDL
In short: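 Competitive FP in which unlabelled inhibitor (10 nM to 30 uM dilution series) displaces 5 nM labelled TCF4 from 100 nM β-catenin, room temperature. Read-out ex 470 nm, em 520 nm; experiment repeated three times.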

Structure (SMILES)	EC50 [2] [µM]	β-Cat FP Hill slope [3]	Kd [3] [µM]	viability [1] [%]
CC[C@H](C)[C@H](NC(=O)[C@H](CC(C)C)NC(=O)[C@H](Cc1ccccc1)NC(=O)[C@H](Cc1c[nH]c2ccccc12)NC(=O)[C@H](CCSC)NC(=O)[C@H](CCCNC(=N)N)NC(=O)[C@H](CO)NC(=O)[C@@H](N)CCSC)C(=O)N[C@@H](CO)C(=O)N[C@@H](Cc1ccccc1)C(=O)N[C@@H](Cc1c[nH]c2ccccc12)C(=O)N[C@@H](CCC(=O)O)C(=O)NCC(=O)O [compound 57] (H-MSRMWFLISFWEG-OH)	< 7.5	0.7	1 to 10	104
CC[C@H](C)[C@H](NC(=O)[C@H](Cc1c[nH]c2ccccc12)NC(=O)[C@@H](N)CCSC)C(=O)N[C@@H](CC(C)C)C(=O)N[C@H](C(=O)N[C@@H](CS)C(=O)NC(C)(Cc1ccccc1)C(=O)N[C@@H](Cc1c[nH]c2ccccc12)C(=O)NCC(=O)O)[C@@H](C)CC (stereo partly drawn) [compound 121] (HELM PEPTIDE1{M.W.I.L.I.C.[CC(Cc1ccccc1)(N[*:1])C(=O)[*:2]].W.G}$$$$V2.0)	< 7.5	0.74	< 0.4	150
CC[C@H](C)[C@H](NC(=O)[C@H](CC(C)C)NC(=O)[C@H](Cc1ccccc1)NC(=O)[C@H](Cc1c[nH]c2ccccc12)NC(=O)[C@H](CCSC)NC(=O)[C@H](CCCNC(=N)N)NC(=O)[C@H](CO)NC(=O)[C@@H](N)CCSC)C(=O)N[C@@H](CO)C(=O)N[C@@H](CO)C(=O)N[C@@H](Cc1c[nH]c2ccccc12)C(=O)NCC(=O)O [compound 54] (H-MSRMWFLISSWG-OH)	15 to 22.5	0.7	1 to 10	98.3
CC[C@H](C)[C@H](NC(=O)[C@H](CC(C)C)NC(=O)[C@H](Cc1ccccc1)NC(=O)[C@H](Cc1c[nH]c2ccccc12)NC(=O)[C@H](Cc1c[nH]c2ccccc12)NC(=O)[C@H](CCCNC(=N)N)NC(=O)[C@H](CO)NC(=O)[C@@H](N)CCSC)C(=O)N[C@@H](CO)C(=O)N[C@@H](Cc1ccccc1)C(=O)N[C@@H](Cc1c[nH]c2ccccc12)C(N)=O [compound 78] (H-MSRWWFLISFW-NH2)	> 30		> 30	101
CC[C@H](C)[C@H](NC(=O)[C@H](CC(C)C)NC(=O)[C@H](Cc1ccccc1)NC(=O)[C@H](Cc1c[nH]c2ccccc12)NC(=O)[C@@H](N)CCSC)C(=O)N[C@@H](CO)C(=O)N[C@@H](CO)C(=O)N[C@@H](Cc1c[nH]c2ccccc12)C(=O)O [compound 96] (H-MWFLISSW-OH)	7.5 to 15	0.7	10 to 30	97.3
CC[C@H](C)[C@H](NC(=O)[C@H](CC(C)C)NC(=O)[C@H](Cc1ccccc1)NC(=O)[C@@H](N)Cc1c[nH]c2ccccc12)C(=O)N[C@@H](CO)C(=O)N[C@@H](COCc1ccccc1)C(=O)N[C@@H](Cc1c[nH]c2ccccc12)C(=O)O [compound 101] (H-WFLISS(Bn)W-OH)	7.5 to 15	3	1 to 10	106

Second part, led by results:

EC50 [2] [µM]	β-Cat FP Hill slope [3]	Kd [3] [µM]	Structure (SMILES)	viability [1] [%]
< 7.5	1.69	0.4 to 1	CC[C@H](C)[C@@H]1NC(=O)[C@H](CC(C)C)NC(=O)[C@H](Cc2ccccc2)NC(=O)[C@H](Cc2c[nH]c3ccccc23)NC(=O)[C@H](CCSC)NC(=O)CCCCCNC(=O)C[C@@H](C(=O)O)NC(=O)[C@H](Cc2c[nH]c3ccccc23)NC(=O)[C@H](Cc2ccccc2)NC(=O)[C@H](CS)NC1=O [compound 189] (HELM PEPTIDE1{[O=C(CCCCCN[*:1])[*:2]].M.W.F.L.I.C.F.W.D}$PEPTIDE1,PEPTIDE1,1:R1-10:R3$$$V2.0)	99.5
< 7.5	0.7	1 to 10	CC[C@H](C)[C@@H]1NC(=O)[C@H](CC(C)C)NC(=O)[C@H](Cc2ccccc2)NC(=O)[C@H](Cc2c[nH]c3ccccc23)NC(=O)[C@@H](NC(C)=O)CCCCNC(=O)C[C@@H](C(=O)O)NC(=O)[C@H](Cc2c[nH]c3ccccc23)NC(=O)[C@H](C)NC(=O)[C@H](CS)NC1=O [compound 169] (HELM PEPTIDE1{[ac].K.W.F.L.I.C.A.W.D}$PEPTIDE1,PEPTIDE1,2:R3-10:R3$$$V2.0)	93.5
< 7.5	1.52	0.4 to 1	CC[C@H](C)[C@H](NC(=O)[C@H](CC(C)C)NC(=O)[C@H](Cc1ccccc1)NC(=O)[C@H](Cc1c[nH]c2ccccc12)NC(=O)[C@H](CCSC)NC(C)=O)C(=O)N[C@@H](CS)C(=O)N[C@@H](Cc1ccccc1)C(=O)N[C@@H](Cc1c[nH]c2ccccc12)C(=O)NCCCC(=O)O [compound 197] (HELM PEPTIDE1{[ac].M.W.F.L.I.C.F.W.[O=C(O)CCCN[*:1]]}$$$$V2.0)	89.8
15 to 22.5		> 30	CC[C@H](C)[C@@H]1NC(=O)[C@H](CC(C)C)NC(=O)[C@H](CC(C)C)NC(=O)[C@H](Cc2c[nH]c3ccccc23)NC(=O)[C@@H](N)CCCCNC(=O)C[C@@H](C(=O)O)NC(=O)[C@H](Cc2c[nH]c3ccccc23)NC(=O)[C@H](C)NC(=O)[C@H](CO)NC1=O [compound 206] (HELM PEPTIDE1{K.W.L.L.I.S.A.W.D}$PEPTIDE1,PEPTIDE1,1:R3-9:R3$$$V2.0)	98.7
15 to 22.5	0.7		CC[C@H](C)[C@H](NC(=O)[C@H](CC(C)C)NC(=O)[C@H](Cc1ccccc1)NC(=O)[C@H](Cc1c[nH]c2ccccc12)NC(=O)[C@@H](N)CCSC)C(=O)N[C@@H](CS)C(=O)N[C@@H](Cc1cn(C)cn1)C(=O)N[C@@H](Cc1c[nH]c2ccccc12)C(=O)NCC(=O)O [compound 140] (HELM PEPTIDE1{M.W.F.L.I.C.[Cn1cnc(C[C@H](N[*:1])C(=O)[*:2])c1].W.G}$$$$V2.0)	102
> 30		> 30	CC[C@H](C)[C@@H]1NC(=O)[C@H](CC(C)C)NC(=O)[C@H](C(C)(C)C)NC(=O)[C@H](Cc2c[nH]c3ccccc23)NC(=O)[C@@H](N)CCCCNC(=O)C[C@@H](C(=O)O)NC(=O)[C@H](Cc2c[nH]c3ccccc23)NC(=O)[C@H](C)NC(=O)[C@H](CO)NC1=O [compound 205] (HELM PEPTIDE1{K.W.[CC(C)(C)[C@H](N[*:1])C(=O)[*:2]].L.I.S.A.W.D}$PEPTIDE1,PEPTIDE1,1:R3-9:R3$$$V2.0)	114
7.5 to 15	0.7	1 to 10	CC[C@H](C)[C@@H]1NC(=O)[C@H](CC(C)C)NC(=O)[C@H](Cc2ccccc2)NC(=O)[C@H](Cc2c[nH]c3ccccc23)NC(=O)[C@@H](NC(C)=O)CCCCNC(=O)CC[C@@H](C(=O)O)NC(=O)[C@H](Cc2c[nH]c3ccccc23)NC(=O)[C@H](C)NC(=O)[C@H](CO)NC1=O [compound 187] (HELM PEPTIDE1{[ac].K.W.F.L.I.S.A.W.E}$PEPTIDE1,PEPTIDE1,2:R3-10:R3$$$V2.0)	90.3
7.5 to 15		> 30	CSCC[C@H](N)C(=O)N[C@@H](Cc1c[nH]c2ccccc12)C(=O)N[C@@H](Cc1ccccc1)C(=O)N[C@@H](CC(C)C)C(=O)N[C@@H](C)C(=O)N[C@@H](CO)C(=O)N[C@@H](Cc1ccccc1)C(=O)N[C@@H](Cc1c[nH]c2ccccc12)C(=O)NCC(=O)O [compound 158] (H-MWFLASFWG-OH)	95.6
